Reference: patent US9573913B2, “Cathepsin cysteine protease inhibitors” (Merck Sharp & Dohme Corp., priority 2013, dated 2017)

Experiments:
human cathepsin K = human cathepsin K (UniProt P43236); test: Cathepsin K Assay (hrbCat K); format: biochemical; conditions: Z-Leu-Arg-AMC substrate, pH 5.5, 15 min preincubation; read-out: hrbCat K (IP (nM))
Experimental: Cathepsin K Assay (hrbCat K)
(§1) Then 0.5 μL of DMSO from each dilution were added to 18.75 μL of assay buffer (MES, 50 mM (pH 5.5); EDTA, 2.5 mM; DTT, 2.5 mM and 10% DMSO) containing human cathepsin K (0.4 nM) in assay buffer solution. The assay solutions were mixed for 5-10 seconds on a shaker plate and incubated for 15 minutes at room temperature. Z-Leu-Arg-AMC (8 μM) in 6.25 μL of assay buffer was added to the assay solutions. Hydrolysis of the coumarin leaving group (AMC) was followed by spectrofluorometry (Exλ=360 nm; Emλ=460 nm) for 30 minutes. Percent of inhibition were calculated by fitting experimental values to standard mathematical model for dose response curve.

human cathepsin F = target: T1, human cathepsin F (Homo sapiens, UniProt Q9UBX1); test: Cathepsin F assay (hCat F); format: biochemical; conditions: Z-Phe-Arg-AMC substrate, pH 5.5, 15 min preincubation; read-out: hCat F (IP (nM))
T1 sequence (Q9UBX1 271-484): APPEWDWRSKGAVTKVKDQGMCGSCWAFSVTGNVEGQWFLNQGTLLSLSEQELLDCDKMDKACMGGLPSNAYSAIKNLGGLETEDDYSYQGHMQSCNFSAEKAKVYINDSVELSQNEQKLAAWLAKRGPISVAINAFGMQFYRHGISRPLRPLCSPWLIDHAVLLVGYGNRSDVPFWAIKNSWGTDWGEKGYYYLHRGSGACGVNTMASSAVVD
Experimental: Cathepsin F assay (hCat F)
as §1, with “Serial dilutions (1/3) from 500 μM down to 0.025 μM of test compounds were prepared in dimethyl sulfoxide (DMSO). Then” for “Then”, “F (10” for “K (0.4”, “Z-Phe-Arg-AMC” for “Z-Leu-Arg-AMC”, “20” for “30”

Row | Structure (SMILES) | IC50 (human cathepsin K) [nM] | IC50 (human cathepsin F) [nM]
1 | N#CC1(NC(=O)[C@@H]2CC3CC3C[C@H]2c2nc(-c3cncc(F)c3)sc2-c2ccc(N3CCS(=O)(=O)CC3)cc2)CC1 (single isomer, unassigned) [Example 111, (1S or 1R,3R,4R,6R or 6S)-N-(1-cyanocyclopropyl)-4-(5-(4-(1,1-dioxidothiomorpho-lino)phenyl)-2-(5-fluoropyridin-3-yl)thiazol-4-yl)bicyclo[4.1.0] heptane-3-carboxamide] | 0.7 | 225
2 | N#CC1(NC(=O)[C@@H]2CC3CC3C[C@H]2c2nc(-c3cncc(F)c3)sc2-c2ccc(N3CCS(=O)(=O)CC3)cc2)CC1 (single isomer, unassigned) [Example 112, (1R or 1S,3R,4R,6S or 6R)-N-(1-cyanocyclopropyl)-4-(5-(4-(1,1-dioxidothiomorpho-lino)phenyl)-2-(5-fluoropyridin-3-yl)thiazol-4-yl)bicyclo[4.1.0] heptane-3-carboxamide] | 0.9 | 439
3 | N#CC1(NC(=O)[C@@H]2CC3CC3C[C@H]2c2nc(-c3cncc(Cl)c3)sc2-c2ccc(N3CCS(=O)(=O)CC3)cc2)CC1 (single isomer, unassigned) [Example 113] | 0.8 | 482
4 | CC(C#N)NC(=O)[C@@H]1C[C@@H](F)CC[C@H]1c1nc(-c2cncc(F)c2)sc1-c1ccc(N2CCS(=O)(=O)CC2)cc1 (single isomer, unassigned) [Example 126, (1R,2R,5S)-N-((S or R)-1-cyanoethyl)-2-(5-(4-(1,1-dioxidothiomorpho-lino)phenyl)-2-(5-fluoropyridin-3-yl)thiazol-4-yl)-5-fluorocyclohexane-carboxamide] | 1.7 | 1760
5 | N#CC(NC(=O)[C@@H]1CCCC[C@H]1c1nc(-c2ccc(F)cn2)sc1-c1ccc(N2CCS(=O)(=O)CC2)cc1)C1CCOCC1 (single isomer, unassigned) [Example 185, (1R,2R)-N-((R or S)-cyano(tetrahydro-2H-pyran-4-yl)methyl)-2-(5-(4-(1,1-dioxidothiomorpho-lino)phenyl)-2-(5-fluoropyridin-2-yl)thiazol-4-yl)cyclohexane-carboxamide] | 1.3 | 695
6 | N#CC(NC(=O)[C@@H]1CCCC[C@H]1c1nc(-c2ccc(F)cn2)sc1-c1ccc(N2CCS(=O)(=O)CC2)cc1)C1CCOCC1 (single isomer, unassigned) [Example 186, (1R,2R)-N-((S or R)-cyano(tetrahydro-2H-pyran-4-yl)methyl)-2-(5-(4-(1,1-dioxidothiomorpho-lino)phenyl)-2-(5-fluoropyridin-2-yl)thiazol-4-yl)cyclohexane-carboxamide] | 1900 | ≥ 10000
7 | CC(C)C(C#N)NC(=O)[C@@H]1CCCC[C@H]1c1nc(-c2ccc(F)cn2)sc1-c1ccc(N2CCS(=O)(=O)CC2)cc1 (single isomer, unassigned) [Example 187, (1R,2R)-N-((S or R)-1-cyano-2-methylpropyl)-2-(5-(4-(1,1-dioxidothiomorpho-lino)phenyl)-2-(5-fluoropyridin-2-yl)thiazol-4-yl)cyclohexane-carboxamide] | 3820 | ≥ 10000
8 | CCC(C#N)NC(=O)[C@@H]1CCCC[C@H]1c1nc(-c2ccc(F)cn2)sc1-c1ccc(N2CCS(=O)(=O)CC2)cc1 (single isomer, unassigned) [Example 188, (1R,2R)-N-((S or R)-1-cyanopropyl)-2-(5-(4-(1,1-dioxidothiomorpho-lino)phenyl)-2-(5-fluoropyridin-2-yl)thiazol-4-yl)cyclohexane-carboxamide] | 15.3 | 6710
9 | CC(C)C(C#N)NC(=O)[C@@H]1CCCC[C@H]1c1nc(-c2ccc(F)cn2)sc1-c1ccc(N2CCS(=O)(=O)CC2)cc1 (single isomer, unassigned) [Example 191, (1R,2R)-N-((R or S)-1-cyano-2-methylpropyl)-2-(5-(4-(1,1-dioxidothiomorpho-lino)phenyl)-2-(5-fluoropyridin-2-yl)thiazol-4-yl)cyclohexane-carboxamide] | 1.5 | 691
10 | CC1CC1(C#N)NC(=O)[C@@H]1CCCC[C@H]1c1nc(-c2ccc(F)cn2)sc1-c1ccc(N2CCS(=O)(=O)CC2)cc1 (single isomer, unassigned) [Example 202, (1R,2R)-N-((1S,2S or 1S,2R or 1R,2S or 1R,2R)-1-cyano-2-methylcyclopropyl)-2-(5-(4-(1,1-dioxidothiomorpho-lino)phenyl)-2-(5-fluoropyridin-2-yl)thiazol-4-yl)cyclohexane-carboxamide] | 6.6 | ≥ 10000
11 | N#CC1(NC(=O)[C@@H]2C[C@@H](F)CC[C@H]2c2nc(C3CC(F)C3)sc2-c2ccc(N3CCS(=O)(=O)CC3)cc2)CC1 (single isomer, unassigned) [Example 233, (1R,2R,5S)-N-(1-cyanocyclopropyl)-2-(5-(4-(1,1-dioxidothiomorpho-lino)phenyl)-2-((1S,3S or 1R,3R)-3-fluorocyclobutyl)thiazol-4-yl)-5-fluorocyclohexane-carboxamide] | 6 | ≥ 10000
12 | N#CC1(NC(=O)[C@@H]2CCCC[C@H]2c2nc(C3CC(F)(F)C3)sc2-c2ccc(N3CCS(=O)(=O)CC3)cc2)CC1 [Compound 1, (1R,2R)-N-(1-cyanocyclopropyl)-2-(2-(3,3-difluorocyclobutyl)-5-(4-(1,1-dioxidothiomorpholino)phenyl)thiazol-4-yl)cyclohexanecarboxamide] | 5.8 | 1000

More lines, now with the values ahead:

Row | IC50 (human cathepsin K) [nM] | IC50 (human cathepsin F) [nM] | Structure (SMILES)
13 | 42.5 | ≥ 10000 | CC(C#N)NC(=O)[C@@H]1C[C@@H](F)CC[C@H]1c1nc(-c2cncc(F)c2)sc1-c1ccc(N2CCS(=O)(=O)CC2)cc1 (single isomer, unassigned) [Example 127, (1R,2R,5S)-N-((R or S)-1-cyanoethyl)-2-(5-(4-(1,1-dioxidothiomorpho-lino)phenyl)-2-(5-fluoropyridin-3-yl)thiazol-4-yl)-5-fluorocyclohexane-carboxamide]
14 | 0.4 | 103 | CCC(C#N)NC(=O)[C@@H]1CCCC[C@H]1c1nc(-c2ccc(F)cn2)sc1-c1ccc(N2CCS(=O)(=O)CC2)cc1 (single isomer, unassigned) [Example 192, (1R,2R)-N-((R or S)-1-cyanopropyl)-2-(5-(4-(1,1-dioxidothiomorpho-lino)phenyl)-2-(5-fluoropyridin-2-yl)thiazol-4-yl)cyclohexane-carboxamide]
15 | 0.6 | 21 | N#CC(CC(F)(F)F)NC(=O)[C@@H]1CCCC[C@H]1c1nc(-c2ccc(F)cn2)sc1-c1ccc(N2CCS(=O)(=O)CC2)cc1 (single isomer, unassigned) [Example 193, (1R,2R)-N-((R or S)-1-cyano-3,3,3-trifluoropropyl)-2-(5-(4-(1,1-dioxidothiomorpho-lino)phenyl)-2-(5-fluoropyridin-2-yl)thiazol-4-yl)cyclohexane-carboxamide]
16 | 3.1 | 1920 | N#CC(CC(F)(F)F)NC(=O)[C@@H]1CCCC[C@H]1c1nc(-c2ccc(F)cn2)sc1-c1ccc(N2CCS(=O)(=O)CC2)cc1 (single isomer, unassigned) [Example 194, (1R,2R)-N-((S or R)-1-cyano-3,3,3-trifluoropropyl)-2-(5-(4-(1,1-dioxidothiomorpho-lino)phenyl)-2-(5-fluoropyridin-2-yl)thiazol-4-yl)cyclohexane-carboxamide]
17 | 4 | 6100 | C[C@@H](C#N)NC(=O)[C@@H]1C[C@@H](F)CC[C@H]1c1nc(C2CC(F)C2)sc1-c1ccc(N2CCS(=O)(=O)CC2)cc1 (single isomer, unassigned) [Example 234, (1R,2R,5S)-N-((S)-1-cyanoethyl)-2-(5-(4-(1,1-dioxidothiomorpho-lino)phenyl)-2-((1S,3S or 1R,3R)-(3-fluorocyclobutyl)thiazol-4-yl)-5-fluorocyclohexane-carboxamide]
18 | 3.7 | 4500 | C[C@@H](C#N)NC(=O)[C@@H]1C[C@@H](F)CC[C@H]1c1nc(C2CC(F)C2)sc1-c1ccc(N2CCS(=O)(=O)CC2)cc1 (single isomer, unassigned) [Example 236, (1R,2R,5S)-N-((S)-1-cyanoethyl)-2-(5-(4-(1,1-dioxidothiomorpho-lino)phenyl)-2-((1R,3R or 1S,3S)-(3-fluorocyclobutyl)thiazol-4-yl)-5-fluorocyclohexane-carboxamide]
